Reference: BindingDB's records for doi:10.1124/jpet.104.066787 (Georgetown University, 2004)
Values joined by “and” are separate entries in the source; they are usually repeats but may differ in a detail not shown here. Identical values can stand only once.

How the values were obtained:
[1] = target: Neuronal acetylcholine receptor subunit alpha-4 (Rattus norvegicus, UniProt P09483)
[2] = target: Neuronal acetylcholine receptor subunit alpha-2 (Rattus norvegicus, UniProt P12389)
[3] = target: Neuronal acetylcholine receptor subunit alpha-3 (Rattus norvegicus, UniProt P04757)
Neuronal acetylcholine receptor subunit alpha-3, sequence (P04757 whole entry): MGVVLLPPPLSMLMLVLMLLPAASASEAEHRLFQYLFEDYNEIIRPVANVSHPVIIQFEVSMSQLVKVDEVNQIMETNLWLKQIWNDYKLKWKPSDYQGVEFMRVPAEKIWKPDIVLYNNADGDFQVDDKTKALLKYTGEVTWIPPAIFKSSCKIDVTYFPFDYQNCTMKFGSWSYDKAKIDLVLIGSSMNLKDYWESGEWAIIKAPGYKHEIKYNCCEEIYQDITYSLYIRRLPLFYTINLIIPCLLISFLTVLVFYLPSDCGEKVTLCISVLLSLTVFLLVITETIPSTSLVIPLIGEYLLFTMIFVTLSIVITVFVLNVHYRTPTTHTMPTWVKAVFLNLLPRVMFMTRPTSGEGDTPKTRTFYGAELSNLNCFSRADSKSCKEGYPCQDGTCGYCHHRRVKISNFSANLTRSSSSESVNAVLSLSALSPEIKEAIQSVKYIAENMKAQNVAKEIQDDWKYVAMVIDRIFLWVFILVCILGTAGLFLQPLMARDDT

[4] = target: Nicotinic acetylcholine receptor (Rattus norvegicus)

Neuronal acetylcholine receptor subunit alpha-2, sequence (P12389 whole entry): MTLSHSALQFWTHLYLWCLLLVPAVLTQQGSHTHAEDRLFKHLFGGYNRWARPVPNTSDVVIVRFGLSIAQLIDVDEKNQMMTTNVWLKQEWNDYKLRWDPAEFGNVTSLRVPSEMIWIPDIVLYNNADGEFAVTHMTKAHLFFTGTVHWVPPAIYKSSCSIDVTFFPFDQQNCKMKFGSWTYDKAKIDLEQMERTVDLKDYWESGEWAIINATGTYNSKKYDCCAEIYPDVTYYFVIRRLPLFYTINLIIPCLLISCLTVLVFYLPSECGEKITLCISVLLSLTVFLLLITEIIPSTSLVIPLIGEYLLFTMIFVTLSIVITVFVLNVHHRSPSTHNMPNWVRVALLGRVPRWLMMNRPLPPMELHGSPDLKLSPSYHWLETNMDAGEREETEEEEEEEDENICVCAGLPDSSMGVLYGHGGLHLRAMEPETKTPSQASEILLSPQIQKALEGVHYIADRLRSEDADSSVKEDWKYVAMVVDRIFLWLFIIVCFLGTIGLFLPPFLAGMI
Neuronal acetylcholine receptor subunit alpha-4, sequence (P09483 whole entry): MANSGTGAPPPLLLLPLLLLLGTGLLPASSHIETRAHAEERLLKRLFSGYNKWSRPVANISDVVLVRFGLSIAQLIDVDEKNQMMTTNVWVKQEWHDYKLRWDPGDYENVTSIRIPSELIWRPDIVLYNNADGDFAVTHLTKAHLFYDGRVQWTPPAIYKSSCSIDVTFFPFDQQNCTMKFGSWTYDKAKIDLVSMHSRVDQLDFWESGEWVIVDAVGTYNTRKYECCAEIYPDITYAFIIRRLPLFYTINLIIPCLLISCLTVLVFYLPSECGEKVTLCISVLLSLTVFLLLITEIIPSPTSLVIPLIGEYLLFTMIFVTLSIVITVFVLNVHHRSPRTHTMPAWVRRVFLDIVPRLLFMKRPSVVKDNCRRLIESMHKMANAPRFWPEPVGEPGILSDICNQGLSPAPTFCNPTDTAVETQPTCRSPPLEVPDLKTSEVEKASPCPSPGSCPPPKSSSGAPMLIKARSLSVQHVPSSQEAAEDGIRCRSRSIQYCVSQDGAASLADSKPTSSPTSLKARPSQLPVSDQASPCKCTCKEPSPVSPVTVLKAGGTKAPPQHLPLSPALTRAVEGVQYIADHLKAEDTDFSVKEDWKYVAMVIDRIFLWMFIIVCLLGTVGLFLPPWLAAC

Row | SMILES | Ki [1] | Ki [2] | Ki [3] | Ki [4]
1 | C[N+](C)(C)CCOC(N)=O [(2-Hydroxyethyl)trimethyl ammonium chloride carbamate] | 590 nM and 1100 nM | 260 nM and 930 nM | 1100 nM and 4700 nM | –
2 | Ic1ccc(C2CC3CCC2N3)cn1 (stereo unspecified) [IPH] | 0.15 nM | 0.11 nM and 0.15 nM | 0.18 nM and 0.98 nM | 0.33 nM
3 | CCN1CC2(COC(=O)c3ccccc3-n3c(O)cc(C)c3O)CCC(OC)C34C5CC6C(OC)CC(O)(C5C6OC)C(O)(C(OC)C23)C14 (stereo unspecified) [CAS_21019-30-7] | > 10000 nM and 6400 nM | > 10000 nM | – | –
4 | CO[C@H]1CC=C2CCN3CCC4=C(CC(=O)OC4)[C@]23C1 | – | 6200 nM and > 10000 nM | 3800 nM and > 10000 nM | –
5 | c1cncc(OCC2CCN2)c1 (stereo unspecified) [A-85380] | – | 18 nM | – | –
6 | CC(=O)OCC[N+](C)(C)C [2-acetoxyethyl(trimethyl)ammonium;perchlorate] | – | 11 nM | – | –
7 | O=c1cccc2n1CC1CNCC2C1 (stereo unspecified) [CAS_485-35-8] | 1.5 nM and 2.1 nM | 1.1 nM and 5.4 nM | 37 nM and 220 nM | –
8 | CNC1(C)C2CCC(C2)C1(C)C (stereo unspecified) [Methyl-(2,3,3-trimethyl-bicyclo[2.2.1]hept-2-yl)-amine(Mecamylamine)] | > 10000 nM | > 10000 nM | – | –
9 | C[N+](C)(C)CCO [2-hydroxy-N,N,N-trimethylethanaminium] | > 10000 nM | > 10000 nM | > 10000 nM | –
